# System: bacteria and/or enzymes in the produced water
# Assay: Fann 50 viscosity test of guar or CMHPG gels prepared from pretreated oilfield produced water
# Conditions: similar borate-crosslinked guar gels versus "as is" produced water
# Method: Example of produced water treated with zirconyl chloride: Produced water PW4 was treated with 0.36 mL/L of zirconyl chloride solution M14. The mixture was stirred and then let stand for 30 minutes or more. Gels comprising borate-crosslinked guar were prepared with 8.8 mL/L M1, 6.0 mL/L M10, and 2.5 mL/L M11, in both the untreated and the M14-treated PW4 produced water. The viscosities of the fluids were tested with a Fann 50 viscometer.
# Example of produced water treated with zirconium tetrachloride (ZTC): Produced water PW5-1 was treated with 1 mL/L of an aqueous solution of ZTC (containing an equivalent of 7.0 wt % ZrO2), stirred and then let stand for 1 day. Gels comprising borate-crosslinked guar were prepared with 8.8 mL/L M1, 6.0 mL/L M10 and 2.5 mL/L M11, using the treated (ES5) and untreated water (PW5-1, as is), and the viscosity of the fluids was tested with a Fann 50 viscometer at 93° C.
# Examples of produced water treated with other inorganic heavy metal ions: Gels of borate-crosslinked guar were prepared from 8.8 mL/L M1, 6.0 mL/L M10 and 2.5 mL/L M11, added to two samples of BaCl2-treated PW6-1 produced water—0.28 g/L BaCl2 in ES6 and 3.4 g/L BaCl2 in ES7, followed by individual stirring for 30 minutes. […]
smiles,measurement,value
[Cl][Cu][Cl] [CuCl2],effect of produced water treatment on gel viscosity (in words),did not obviously improve the viscosity

# — patent US20080287323A1, “Treatment and Reuse of Oilfield Produced Water” (priority 2007, published 2008)
